Source: patent US20210261621A1, “Preparation of Dilipid Polymixins and Use Thereof as Antimicrobial Adjuvants” (priority 2018, published 2021)
Where two headings read alike, the source gives them in different places. Positions of bridges follow the written chain, without caps; N, C: chain ends. Non-standard residues stand in square brackets, D forms with d. Residues, ends and D or L forms follow the SMILES beside them. *: point of attachment. Lauroyl = CCCCCCCCCCCC(=O)*; Dab = NCC[C@H](N)C(=O)O; Butyryl = CCCC(=O)*

Test system: P. aeruginosa PAO1
Design: MICDrug / MICDrug in combo / MIC of adjuvant in combo: unit not given beside the values
Conditions: for MIC of adjuvant alone (MIC1, MIC2, MIC3, MIC4, MIC5, MICPMBN): one value per checkerboard, in µg/mL
Method: The potential of the dilipid polymyxins to serve as an adjuvant in combination with other antibiotics was evaluated against P. aeruginosa PAO1 strain (Tables 4 and 7-12). […] Checkerboard assays were performed with the dilipid polymyxins in combination with twenty-one clinically-used antibiotics. The panel included representatives from the β-lactam, carbapenem, tetracycline, aminoglycoside and fluoroquinolone antibiotic families. Other agents that are used to treat Gram-negative bacterial infection such as fosfomycin, trimethoprim and chloramphenicol were also included. […] Fractional inhibitory concentration (FIC) index was calculated for each combination to measure potential synergism between the two agents. FIC was obtained by dividing the MIC of antibiotic/adjuvant in combination by the MIC of antibiotic/adjuvant alone, while FIC index was calculated by the summation of FIC indices for the antibiotic and adjuvant. An FIC index of ≤0.5, 0.5<x≤4, or >4 denotes for synergistic, additive or antagonistic interaction, respectively. Initially, we assessed the adjuvant properties of PMBN against the panel of 21 antibiotics.
The assay was performed on 96-well plates as previously described. Briefly, the antibiotic at study was 2-fold serially diluted along the x-axis, while the adjuvant was 2-fold serially diluted along the y-axis to create a matrix in which each well consists of a combination of both at different concentrations. Overnight grown bacterial cultures were diluted in saline to 0.5 McFarland turbidity, followed by 1:50 dilution in MHB and inoculation on each well to a final concentration of approximately 5×10^5 colony forming units/mL. Wells containing only MHB with or without bacterial cells were used as positive or negative control, respectively. […] The fractional inhibitory concentration (FIC) of the antibiotic was calculated via dividing the MIC of antibiotic in the presence of adjuvant by the MIC of antibiotic alone. Similarly, the FIC of adjuvant was calculated via dividing the MIC of adjuvant in the presence of antibiotic by the MIC of adjuvant alone. The FIC index was obtained by the summation of both FIC values. The FIC index was then interpreted as synergistic, additive, or antagonistic for values of ≤0.5, 0.5<x<4, or ≥4, respectively.

[1] = combination with Chloramphenicol
[2] = in combination with Ceftazidime
[3] = in combination with Chloramphenicol
[4] = in combination with Ciprofloxacin
[5] = in combination with Clindamycin
[6] = in combination with Doxycycline
[7] = in combination with Minocycline
[8] = in combination with Moxifloxacin
[9] = in combination with Piperacillin
[10] = in combination with Pleuromutilin
[11] = in combination with Streptomycin
[12] = in combination with Trimethoprim

CCCC(=O)NCC[C@H](NC(=O)CCC)C(=O)N[C@H](C(=O)N[C@@H](CCN)C(=O)N[C@H]1CCNC(=O)[C@H]([C@@H](C)O)NC(=O)[C@H](CCN)NC(=O)[C@H](CCN)NC(=O)[C@H](CC(C)C)NC(=O)[C@@H](Cc2ccccc2)NC(=O)[C@H](CCN)NC1=O)[C@@H](C)O [Compound 1, Dibutyric Acid (Di-C4) Polymyxin] (Butyryl-[Dab](Butyryl)T[Dab][Dab][Dab][dF]L[Dab][Dab]T; lactam 4-C)
MIC of adjuvant alone (MIC1, MIC2, MIC3, MIC4, MIC5, MICPMBN): 128
Interpretation (combination with Aztreonam): Synergy (An FIC index of ≤0.5, 0.5<x≤4, or >4 denotes for synergistic, additive or antagonistic interaction, respectively)
Interpretation (combination with Ceftazidime): Synergy (An FIC index of ≤0.5, 0.5<x≤4, or >4 denotes for synergistic, additive or antagonistic interaction, respectively)
Interpretation [1]: Synergy (An FIC index of ≤0.5, 0.5<x≤4, or >4 denotes for synergistic, additive or antagonistic interaction, respectively)
Interpretation (combination with Ciprofloxacin): Synergy (An FIC index of ≤0.5, 0.5<x≤4, or >4 denotes for synergistic, additive or antagonistic interaction, respectively)
Interpretation (combination with Clindamycin): Synergy (An FIC index of ≤0.5, 0.5<x≤4, or >4 denotes for synergistic, additive or antagonistic interaction, respectively)
Interpretation (combination with Doripenem): Additive (An FIC index of ≤0.5, 0.5<x≤4, or >4 denotes for synergistic, additive or antagonistic interaction, respectively)
Interpretation (combination with Doxycycline): Synergy (An FIC index of ≤0.5, 0.5<x≤4, or >4 denotes for synergistic, additive or antagonistic interaction, respectively)
Interpretation (combination with Fosfomycin): Synergy (An FIC index of ≤0.5, 0.5<x≤4, or >4 denotes for synergistic, additive or antagonistic interaction, respectively)
Interpretation (combination with Gentamicin): Additive (An FIC index of ≤0.5, 0.5<x≤4, or >4 denotes for synergistic, additive or antagonistic interaction, respectively)
Interpretation (combination with Linezolid): Synergy (An FIC index of ≤0.5, 0.5<x≤4, or >4 denotes for synergistic, additive or antagonistic interaction, respectively)
Interpretation (combination with Meropenem): Synergy (An FIC index of ≤0.5, 0.5<x≤4, or >4 denotes for synergistic, additive or antagonistic interaction, respectively)
Interpretation (combination with Minocycline): Synergy (An FIC index of ≤0.5, 0.5<x≤4, or >4 denotes for synergistic, additive or antagonistic interaction, respectively)
Interpretation (combination with Moxifloxacin): Synergy (An FIC index of ≤0.5, 0.5<x≤4, or >4 denotes for synergistic, additive or antagonistic interaction, respectively)
Interpretation (combination with Novobiocin): Synergy (An FIC index of ≤0.5, 0.5<x≤4, or >4 denotes for synergistic, additive or antagonistic interaction, respectively)
Interpretation (combination with Piperacillin): Additive (An FIC index of ≤0.5, 0.5<x≤4, or >4 denotes for synergistic, additive or antagonistic interaction, respectively)
Interpretation (combination with Pleuromutilin): Synergy (An FIC index of ≤0.5, 0.5<x≤4, or >4 denotes for synergistic, additive or antagonistic interaction, respectively)
Interpretation (combination with Rifampicin): Synergy (An FIC index of ≤0.5, 0.5<x≤4, or >4 denotes for synergistic, additive or antagonistic interaction, respectively)
Interpretation (combination with Streptomycin): Additive (An FIC index of ≤0.5, 0.5<x≤4, or >4 denotes for synergistic, additive or antagonistic interaction, respectively)
Interpretation (combination with Tobramycin): Additive (An FIC index of ≤0.5, 0.5<x≤4, or >4 denotes for synergistic, additive or antagonistic interaction, respectively)
Interpretation (combination with Trimethoprim): Synergy (An FIC index of ≤0.5, 0.5<x≤4, or >4 denotes for synergistic, additive or antagonistic interaction, respectively)
Interpretation (combination with Vancomycin): Synergy (An FIC index of ≤0.5, 0.5<x≤4, or >4 denotes for synergistic, additive or antagonistic interaction, respectively)
MIC of adjuvant in combo (in combination with Aztreonam): (32)
MIC of adjuvant in combo [2]: (32)
MIC of adjuvant in combo [3]: (4)
MIC of adjuvant in combo [4]: (32)
MIC of adjuvant in combo [5]: (8)
MIC of adjuvant in combo (in combination with Doripenem): (32)
MIC of adjuvant in combo [6]: (2)
MIC of adjuvant in combo (in combination with Fosfomycin): (16)
MIC of adjuvant in combo (in combination with Gentamicin): (0.0625)
MIC of adjuvant in combo (in combination with Linezolid): (4)
MIC of adjuvant in combo (in combination with Meropenem): (32)
MIC of adjuvant in combo [7]: (2)
MIC of adjuvant in combo [8]: (16)
MIC of adjuvant in combo (in combination with Novobiocin): (8)
MIC of adjuvant in combo [9]: (32)
MIC of adjuvant in combo [10]: (8)
MIC of adjuvant in combo (in combination with Rifampicin): (2)
MIC of adjuvant in combo [11]: (32)
MIC of adjuvant in combo (in combination with Tobramycin): (0.5)
MIC of adjuvant in combo [12]: (16)
MIC of adjuvant in combo (in combination with Vancomycin): (32)

CCCCCCCCCCCC(=O)NCC[C@H](NC(=O)CCCCCCCCCCC)C(=O)N[C@H](C(=O)N[C@@H](CCN)C(=O)N[C@H]1CCNC(=O)[C@H]([C@@H](C)O)NC(=O)[C@H](CCN)NC(=O)[C@H](CCN)NC(=O)[C@H](CC(C)C)NC(=O)[C@@H](Cc2ccccc2)NC(=O)[C@H](CCN)NC1=O)[C@@H](C)O [Compound 3, Didodecanoic Acid (Di-C12) Polymyxin] (Lauroyl-[Dab](Lauroyl)T[Dab][Dab][Dab][dF]L[Dab][Dab]T; lactam 4-C)
MIC of adjuvant alone (MIC1, MIC2, MIC3, MIC4, MIC5, MICPMBN): 32
Interpretation (combination with Aztreonam): Additive (An FIC index of ≤0.5, 0.5<x≤4, or >4 denotes for synergistic, additive or antagonistic interaction, respectively)
Interpretation (combination with Ceftazidime): Additive (An FIC index of ≤0.5, 0.5<x≤4, or >4 denotes for synergistic, additive or antagonistic interaction, respectively)
Interpretation [1]: Additive (An FIC index of ≤0.5, 0.5<x≤4, or >4 denotes for synergistic, additive or antagonistic interaction, respectively)
Interpretation (combination with Ciprofloxacin): Additive (An FIC index of ≤0.5, 0.5<x≤4, or >4 denotes for synergistic, additive or antagonistic interaction, respectively)
Interpretation (combination with Clindamycin): Additive (An FIC index of ≤0.5, 0.5<x≤4, or >4 denotes for synergistic, additive or antagonistic interaction, respectively)
Interpretation (combination with Doripenem): Additive (An FIC index of ≤0.5, 0.5<x≤4, or >4 denotes for synergistic, additive or antagonistic interaction, respectively)
Interpretation (combination with Doxycycline): Additive (An FIC index of ≤0.5, 0.5<x≤4, or >4 denotes for synergistic, additive or antagonistic interaction, respectively)
Interpretation (combination with Fosfomycin): Additive (An FIC index of ≤0.5, 0.5<x≤4, or >4 denotes for synergistic, additive or antagonistic interaction, respectively)
Interpretation (combination with Gentamicin): Additive (An FIC index of ≤0.5, 0.5<x≤4, or >4 denotes for synergistic, additive or antagonistic interaction, respectively)
Interpretation (combination with Linezolid): Additive (An FIC index of ≤0.5, 0.5<x≤4, or >4 denotes for synergistic, additive or antagonistic interaction, respectively)
Interpretation (combination with Meropenem): Additive (An FIC index of ≤0.5, 0.5<x≤4, or >4 denotes for synergistic, additive or antagonistic interaction, respectively)
Interpretation (combination with Minocycline): Additive (An FIC index of ≤0.5, 0.5<x≤4, or >4 denotes for synergistic, additive or antagonistic interaction, respectively)
Interpretation (combination with Moxifloxacin): Additive (An FIC index of ≤0.5, 0.5<x≤4, or >4 denotes for synergistic, additive or antagonistic interaction, respectively)
Interpretation (combination with Novobiocin): Additive (An FIC index of ≤0.5, 0.5<x≤4, or >4 denotes for synergistic, additive or antagonistic interaction, respectively)
Interpretation (combination with Piperacillin): Additive (An FIC index of ≤0.5, 0.5<x≤4, or >4 denotes for synergistic, additive or antagonistic interaction, respectively)
Interpretation (combination with Pleuromutilin): Additive (An FIC index of ≤0.5, 0.5<x≤4, or >4 denotes for synergistic, additive or antagonistic interaction, respectively)
Interpretation (combination with Rifampicin): Additive (An FIC index of ≤0.5, 0.5<x≤4, or >4 denotes for synergistic, additive or antagonistic interaction, respectively)
Interpretation (combination with Streptomycin): Additive (An FIC index of ≤0.5, 0.5<x≤4, or >4 denotes for synergistic, additive or antagonistic interaction, respectively)
Interpretation (combination with Tobramycin): Additive (An FIC index of ≤0.5, 0.5<x≤4, or >4 denotes for synergistic, additive or antagonistic interaction, respectively)
Interpretation (combination with Trimethoprim): Additive (An FIC index of ≤0.5, 0.5<x≤4, or >4 denotes for synergistic, additive or antagonistic interaction, respectively)
Interpretation (combination with Vancomycin): Additive (An FIC index of ≤0.5, 0.5<x≤4, or >4 denotes for synergistic, additive or antagonistic interaction, respectively)
MIC of adjuvant in combo (in combination with Aztreonam): (16)
MIC of adjuvant in combo [2]: (16)
MIC of adjuvant in combo [3]: (16)
MIC of adjuvant in combo [4]: (0.25)
MIC of adjuvant in combo [5]: (16)
MIC of adjuvant in combo (in combination with Doripenem): (16)
MIC of adjuvant in combo [6]: (16)
MIC of adjuvant in combo (in combination with Fosfomycin): (8)
MIC of adjuvant in combo (in combination with Gentamicin): (0.25)
MIC of adjuvant in combo (in combination with Linezolid): (32)
MIC of adjuvant in combo (in combination with Meropenem): (16)
MIC of adjuvant in combo [7]: (16)
MIC of adjuvant in combo [8]: (16)
MIC of adjuvant in combo (in combination with Novobiocin): (16)
MIC of adjuvant in combo [9]: (16)
MIC of adjuvant in combo [10]: (16)
MIC of adjuvant in combo (in combination with Rifampicin): (8)
MIC of adjuvant in combo [11]: (0.25)
MIC of adjuvant in combo (in combination with Tobramycin): (0.25)
MIC of adjuvant in combo [12]: (16)
MIC of adjuvant in combo (in combination with Vancomycin): (16)
adjuvant activity (potentiation of the panel of 21 antibiotics) (result in words): did not enhance the activity of any antibiotics
